This passage reports TGI results from PubChem BioAssay (NCI).

Each structure is given as a SMILES string.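 96-well plates; 48 h exposure; 5 concentrations. Endpoints by linear interpolation between flanking doses. Not reached: highest tested concentration assigned. The concentration for full growth arrest is given as TGI.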

Among the test systems are A498 renal; EKVX NSCLC; HOP-92 NSCLC; MDA-N; NCI-H226 lung; NCI-H23 lung; RPMI-8226 leukemia; SNB-75 CNS; UACC-257 melanoma; UACC-62 melanoma; UO-31 renal.
Common to all, as to test: NCI-60 cell line screen, 48 h

For `CCOCc1nc2c(OC)cc(-c3nc4ccc(N5CCN(C)CC5)cc4[nH]3)c(OC)c2[nH]1`, the TGI with A498 renal is over 100 µM; in the experiment with EKVX NSCLC it was over 100 µM; in the experiment with HOP-92 NSCLC, over 100 µM; with MDA-N, 35.9 µM; with NCI-H226 lung it was 81 µM; with NCI-H23 lung, over 100 µM. For the same molecule, the TGI in the experiment with RPMI-8226 leukemia is over 100 µM; in the experiment on SNB-75 CNS, 87.1 µM; with UACC-257 melanoma it was 34.4 µM; in the experiment with UACC-62 melanoma, 34.6 µM; with UO-31 renal, 41.8 µM.
As for `O=C1CSC(c2cccc(Oc3ccccc3)c2)N1c1ccc(Cl)cc1` (configuration not stated), the TGI with A498 renal is 47.6 µM; with EKVX NSCLC, 78.7 µM; in the experiment with HOP-92 NSCLC it was 65.7 µM; with MDA-N, 63.6 µM; in the experiment with NCI-H226 lung, over 100 µM; in the experiment on NCI-H23 lung it was over 100 µM. Also, the TGI with SNB-75 CNS is 95.8 µM; with UACC-257 melanoma it was 46.5 µM; in the experiment on UACC-62 melanoma, 34.2 µM; in the experiment on UO-31 renal it was over 100 µM.
As to `Nc1nc(N)c2ncn(-c3ccc(Cl)cc3)c2n1`, the TGI was 83.5 µM in the experiment on A498 renal; over 100 µM in the experiment on EKVX NSCLC; over 100 µM in the experiment with HOP-92 NSCLC; over 100 µM with MDA-N; over 100 µM in the experiment on NCI-H226 lung; over 100 µM with NCI-H23 lung. For the same molecule, the TGI with SNB-75 CNS is 59.1 µM; in the experiment on UACC-257 melanoma, over 100 µM; in the experiment with UACC-62 melanoma it was over 100 µM; in the experiment with UO-31 renal it was over 100 µM.
As to `CCN(CC)CCNc1nc2ccc([N+](=O)[O-])cc2[n+]([O-])n1`, the TGI with A498 renal is 49.7 µM; with HOP-92 NSCLC it was over 100 µM; with MDA-N it was 29.5 µM; in the experiment with NCI-H226 lung it was over 100 µM; in the experiment on NCI-H23 lung it was 47.4 µM; in the experiment with RPMI-8226 leukemia, 44.9 µM. For the same molecule, the TGI in the experiment on SNB-75 CNS was over 100 µM; in the experiment with UACC-257 melanoma, 31.2 µM; in the experiment with UACC-62 melanoma, 35 µM; in the experiment on UO-31 renal, over 100 µM.
For the molecule `O=c1[nH]nc(-c2ccccc2)c2[nH]c3c4ccccc4ccc3c12`, the TGI in the experiment with A498 renal was over 100 µM; in the experiment with EKVX NSCLC it was over 100 µM; with HOP-92 NSCLC, over 100 µM; in the experiment with MDA-N it was 0.545 µM; with NCI-H226 lung, over 100 µM; in the experiment with NCI-H23 lung, 32.7 µM. Moreover, the TGI in the experiment on RPMI-8226 leukemia is 3.57 µM; with SNB-75 CNS, over 100 µM; in the experiment with UACC-257 melanoma, over 100 µM; with UACC-62 melanoma, over 100 µM.
As for `C=CC(CCc1ccc(C(=O)OCC)cc1)c1c(N)nc(N)[nH]c1=O` (configuration not stated), the TGI in the experiment with A498 renal was over 100 µM; in the experiment on HOP-92 NSCLC, 83.8 µM; in the experiment with MDA-N, over 100 µM; in the experiment on NCI-H226 lung, over 100 µM; in the experiment on NCI-H23 lung, over 100 µM; in the experiment with RPMI-8226 leukemia, over 100 µM. The TGI in the experiment with SNB-75 CNS, in the experiment with UACC-257 melanoma, in the experiment on UACC-62 melanoma and in the experiment with UO-31 renal was over 100 µM each time.
For the molecule `C[C@]12CCC(=O)O[C@H]1CCCCO2`, the TGI in the experiment with A498 renal is over 100 µM; with EKVX NSCLC, over 100 µM; in the experiment on HOP-92 NSCLC it was 71.1 µM; with MDA-N, over 100 µM; in the experiment with NCI-H226 lung it was over 100 µM; in the experiment on SNB-75 CNS, over 100 µM. In addition, the TGI with UACC-257 melanoma and with UACC-62 melanoma was over 100 µM in each case.
In the case of `C(=Nc1ccc(-c2nc3ccccc3[nH]2)cc1)c1cccs1`, the TGI with A498 renal is over 100 µM; in the experiment with EKVX NSCLC, over 100 µM; in the experiment with HOP-92 NSCLC, 98.2 µM; with MDA-N, over 100 µM; in the experiment on NCI-H226 lung, over 100 µM; in the experiment on NCI-H23 lung, over 100 µM. The TGI in the experiment on RPMI-8226 leukemia, with SNB-75 CNS, in the experiment on UACC-257 melanoma and with UO-31 renal was over 100 µM in each case.
`COc1cc(/C=C2\C(=O)N(c3ccccc3)C(c3ccccc3)S2(=O)=O)cc(OC)c1OC` (configuration not stated): the TGI is over 100 µM in the experiment with A498 renal; over 100 µM in the experiment on EKVX NSCLC; over 100 µM with HOP-92 NSCLC; 48.3 µM in the experiment with MDA-N; over 100 µM with NCI-H226 lung; over 100 µM in the experiment on NCI-H23 lung. Also, the TGI was 92.3 µM in the experiment with RPMI-8226 leukemia, over 100 µM in the experiment with UACC-257 melanoma, over 100 µM with UACC-62 melanoma and over 100 µM with UO-31 renal.
Consider `CCOC(=O)N/N=C(/N)c1cccc([N+](=O)[O-])c1`, for which the TGI in the experiment on A498 renal, with EKVX NSCLC, with HOP-92 NSCLC, in the experiment on MDA-N, in the experiment with NCI-H23 lung and with SNB-75 CNS was over 100 µM each time. Further, the TGI in the experiment with UACC-257 melanoma, in the experiment with UACC-62 melanoma and in the experiment with UO-31 renal was over 100 µM each time.
For the molecule `O=C(O)c1ccc([N+](=O)[O-])c2cc3cnccc3nc12`, the TGI in the experiment with A498 renal was over 100 µM; with HOP-92 NSCLC it was 45.8 µM; in the experiment on MDA-N, 51.3 µM; with NCI-H226 lung, 61.6 µM; in the experiment on NCI-H23 lung it was 62.9 µM; with RPMI-8226 leukemia, over 100 µM. For the same molecule, the TGI in the experiment with SNB-75 CNS is 34.2 µM; with UACC-62 melanoma it was 24.8 µM; with UO-31 renal, 43.7 µM.
In the case of `COc1cc(/C=C2/C[C@H]3[C@@H]4CC=C5C[C@@H](O)CC[C@]5(C)[C@H]4CC[C@]3(C)NC2=O)cc(OC)c1OC`, the TGI is 55 µM with A498 renal; over 92.8 µM with EKVX NSCLC; 25 µM in the experiment on HOP-92 NSCLC; over 100 µM with MDA-N; over 58.5 µM in the experiment on NCI-H226 lung; over 62.7 µM in the experiment on NCI-H23 lung. The TGI was over 44.4 µM in the experiment on RPMI-8226 leukemia, over 71.5 µM with UACC-257 melanoma, 75.4 µM in the experiment with UACC-62 melanoma and 29.8 µM with UO-31 renal.
Consider `CSc1ncnc2c1ncn2C1CC(Oc2ccc(C)cc2)C(COc2ccc(C)cc2)O1` (configuration not stated), for which the TGI in the experiment with A498 renal, in the experiment on EKVX NSCLC, with HOP-92 NSCLC, in the experiment with MDA-N, in the experiment with NCI-H226 lung and with NCI-H23 lung was over 100 µM in each case. Also, the TGI with RPMI-8226 leukemia, with SNB-75 CNS, with UACC-257 melanoma and in the experiment with UACC-62 melanoma was over 100 µM in each case.
